In PubChem BioAssay AID2060883 (Molecular Pharmacology Branch, DTP, NCI, 2025):
Where “and” joins values, the source holds several entries; their conditions need not be identical. Equal entries are not always repeated.

Tested on: 843782-103-R-J1-PDC complex spheroid viability
Assay: Anticancer human tumor 843782-103-R-J1-PDC patient-derived lung adenocarcinoma cell line growth inhibition [RAS]
Details: for viability, T/C: stronger effect = lower value; active = viability on the fitted dose curve at most 10% of control; inactive = the rest
Outline: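 Agents were tested in combination matrices in half-log decrements from a top concentration at or near clinical Cmax (10 microM if undetermined). Targets were multi-cell spheroids of tumour lines plus HUVEC and MSC stromal cells.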

[1] = curve of first compound, second compound 0.00316 µM
[2] = curve of first compound, second compound 0.01 µM
[3] = curve of first compound, second compound 0.0316 µM
[4] = curve of first compound, second compound 0.1 µM
[5] = curve of first compound, second compound 0.316 µM
[6] = curve of first compound, second compound 1 µM
[7] = second compound 0.0316 µM, first compound 0.0316 µM
[8] = second compound 0.0316 µM, first compound 0.1 µM
[9] = second compound 0.0316 µM, first compound 0.316 µM
[10] = second compound 0.0316 µM, first compound 1 µM
[11] = second compound 0.1 µM, first compound 0.0316 µM
[12] = second compound 0.1 µM, first compound 0.1 µM
[13] = second compound 0.1 µM, first compound 0.316 µM
[14] = second compound 0.1 µM, first compound 1 µM
[15] = second compound 0.316 µM, first compound 0.0316 µM
[16] = second compound 0.316 µM, first compound 0.1 µM
[17] = second compound 0.316 µM, first compound 0.316 µM
[18] = second compound 0.316 µM, first compound 1 µM
[19] = second compound 1 µM, first compound 0.0316 µM
[20] = second compound 1 µM, first compound 0.1 µM
[21] = second compound 1 µM, first compound 0.316 µM
[22] = second compound 1 µM, first compound 1 µM
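Note: viability read after seven days of compound exposure.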

C=CC(=O)Nc1cc(Nc2nccc(-c3cn(C)c4ccccc34)n2)c(OC)cc1N(C)CCN(C)C + C=CC(=O)N1CCN(c2nc(OCC3CCCN3C)nc3c(F)c(-c4nc(N)cc(C)c4C(F)(F)F)c(Cl)cc23)C(C)C1
539 nM: IC50 [3]
310 nM: IC50 [6]
352 nM: IC50 [2]
320 nM: IC50 [1]
377 nM: IC50 [4]
361 nM: IC50 [5]
inactive: viability, T/C (second compound 0.00316 µM, first compound 0.00316 µM) 93.5% | viability, T/C (second compound 0.00316 µM, first compound 0.01 µM) 90.7% | viability, T/C (second compound 0.00316 µM, first compound 0.0316 µM) 80.1% | viability, T/C (second compound 0.00316 µM, first compound 0.1 µM) 82.9% | viability, T/C (second compound 0.00316 µM, first compound 0.316 µM) 49.8% | viability, T/C (second compound 0.00316 µM, first compound 1 µM) 38.9% | viability, T/C (second compound 0.01 µM, first compound 0.00316 µM) 91.6% | viability, T/C (second compound 0.01 µM, first compound 0.01 µM) 84.5% | viability, T/C (second compound 0.01 µM, first compound 0.0316 µM) 83.5% | viability, T/C (second compound 0.01 µM, first compound 0.1 µM) 76.4% | viability, T/C (second compound 0.01 µM, first compound 0.316 µM) 50.6% | viability, T/C (second compound 0.01 µM, first compound 1 µM) 38.1% | viability, T/C (second compound 0.0316 µM, first compound 0.00316 µM) 91.1% | viability, T/C (second compound 0.0316 µM, first compound 0.01 µM) 88.2% | viability, T/C [7] 74.4% | viability, T/C [8] 67% | viability, T/C [9] 51.5% | viability, T/C [10] 46.8% | viability, T/C (second compound 0.1 µM, first compound 0.00316 µM) 87.8% | viability, T/C (second compound 0.1 µM, first compound 0.01 µM) 84.5% | viability, T/C [11] 90.4% | viability, T/C [12] 75.8% | viability, T/C [13] 53.4% | viability, T/C [14] 34.1% | viability, T/C (second compound 0.316 µM, first compound 0.00316 µM) 87% | viability, T/C (second compound 0.316 µM, first compound 0.01 µM) 94% | viability, T/C [15] 77.2% | viability, T/C [16] 70.2% | viability, T/C [17] 52% | viability, T/C [18] 35.5% | viability, T/C (second compound 1 µM, first compound 0.00316 µM) 90.3% | viability, T/C (second compound 1 µM, first compound 0.01 µM) 78.7% | viability, T/C [19] 84.9% | viability, T/C [20] 71% | viability, T/C [21] 49.7% | viability, T/C [22] 32.5%

C[C@@H](NC(=O)c1ncnc(N)c1Cl)c1ncc(C(=O)Nc2cc(C(F)(F)F)c(Cl)cn2)s1 + C#Cc1c(F)ccc2cc(O)cc(-c3ncc4c(N5CC6CCC(C5)N6)nc(OCC56CCCN5CC(F)C6)nc4c3F)c12
> 10000 nM: IC50 [3] | IC50 [4] | IC50 [5] | IC50 [6] | IC50 (curve of first compound, second compound 3.16 µM) | IC50 (curve of first compound, second compound 10 µM)
inactive: viability, T/C [7] 114% | viability, T/C [8] 97.2% | viability, T/C [9] 99.9% | viability, T/C [10] 101% | viability, T/C (second compound 0.0316 µM, first compound 3.16 µM) 112% | viability, T/C (second compound 0.0316 µM, first compound 10 µM) 101% | viability, T/C [11] 112% | viability, T/C [12] 105% | viability, T/C [13] 98.6% | viability, T/C [14] 101% | viability, T/C (second compound 0.1 µM, first compound 3.16 µM) 101% | viability, T/C (second compound 0.1 µM, first compound 10 µM) 105% | viability, T/C [15] 110% | viability, T/C [16] 104% | viability, T/C [17] 103% | viability, T/C [18] 102% | viability, T/C (second compound 0.316 µM, first compound 3.16 µM) 106% | viability, T/C (second compound 0.316 µM, first compound 10 µM) 108% | viability, T/C [19] 101% | viability, T/C [20] 100% | viability, T/C [21] 105% | viability, T/C [22] 101% | viability, T/C (second compound 1 µM, first compound 3.16 µM) 97.2% | viability, T/C (second compound 1 µM, first compound 10 µM) 95.9% | viability, T/C (second compound 3.16 µM, first compound 0.0316 µM) 86.9% | viability, T/C (second compound 3.16 µM, first compound 0.1 µM) 91% | viability, T/C (second compound 3.16 µM, first compound 0.316 µM) 90.5% | viability, T/C (second compound 3.16 µM, first compound 1 µM) 92.7% | viability, T/C (second compound 3.16 µM, first compound 3.16 µM) 80.9% | viability, T/C (second compound 3.16 µM, first compound 10 µM) 87.2% | viability, T/C (second compound 10 µM, first compound 0.0316 µM) 73.3% | viability, T/C (second compound 10 µM, first compound 0.1 µM) 84.3% | viability, T/C (second compound 10 µM, first compound 0.316 µM) 64.8% | viability, T/C (second compound 10 µM, first compound 1 µM) 48.9% | viability, T/C (second compound 10 µM, first compound 3.16 µM) 54.9% | viability, T/C (second compound 10 µM, first compound 10 µM) 49.1%

C=CC(=O)N1CCN(c2nc(OCC3CCCN3C)nc3c(F)c(-c4nc(N)cc(C)c4C(F)(F)F)c(Cl)cc23)C(C)C1 (centres undefined)
> 1000 nM: IC50 (compound alone, run of 09/09/2024) | IC50 (curve of compound)
inactive: viability, T/C (compound 0.00316 µM) 89.6% [middle of 12 runs] | viability, T/C (compound 0.0316 µM) 86.8% [middle of 12 runs] | viability, T/C (compound 0.316 µM) 85.5% [middle of 12 runs] | viability, T/C (compound 1 µM) 86% [middle of 12 runs]

C[C@@H](NC(=O)c1ncnc(N)c1Cl)c1ncc(C(=O)Nc2cc(C(F)(F)F)c(Cl)cn2)s1
inactive: viability, T/C (compound 0.0316 µM) 103% and 104% and 109% (2×) | viability, T/C (compound 0.1 µM) 105% [middle of 4 runs] | viability, T/C (compound 0.316 µM) 99.7% [middle of 4 runs] | viability, T/C (compound 1 µM) 104% (2×) and 113% and 98% | viability, T/C (compound 3.16 µM) 109% [middle of 4 runs] | viability, T/C (compound 10 µM) 103% [middle of 4 runs]
> 10000 nM: IC50 (curve of compound)

CC1(C)CCC(Nc2ncc(C(F)(F)F)c(-c3c[nH]c4c(P(C)(C)=O)c(C#N)ccc34)n2)CN1 (centres undefined) + C=CC(=O)N1CCN(c2nc(OCC3CCCN3C)nc3c(F)c(-c4nc(N)cc(C)c4C(F)(F)F)c(Cl)cc23)C(C)C1
7.23 nM: IC50 [2]
7.99 nM: IC50 [3]
inactive: viability, T/C (second compound 0.00316 µM, first compound 0.000949 µM) 85.3% | viability, T/C (second compound 0.00316 µM, first compound 0.003 µM) 72.8% | viability, T/C (second compound 0.00316 µM, first compound 0.00949 µM) 38.8% | viability, T/C (second compound 0.00316 µM, first compound 0.03 µM) 25.7% | viability, T/C (second compound 0.00316 µM, first compound 0.0949 µM) 13.6% | viability, T/C (second compound 0.00316 µM, first compound 0.3 µM) 21.5% | viability, T/C (second compound 0.01 µM, first compound 0.000949 µM) 89.1% | viability, T/C (second compound 0.01 µM, first compound 0.003 µM) 75.6% | viability, T/C (second compound 0.01 µM, first compound 0.00949 µM) 42% | viability, T/C (second compound 0.01 µM, first compound 0.03 µM) 23% | viability, T/C (second compound 0.01 µM, first compound 0.0949 µM) 18.5% | viability, T/C (second compound 0.01 µM, first compound 0.3 µM) 18.8% | viability, T/C (second compound 0.0316 µM, first compound 0.000949 µM) 82.7% | viability, T/C (second compound 0.0316 µM, first compound 0.003 µM) 81.2% | viability, T/C (second compound 0.0316 µM, first compound 0.00949 µM) 44.5% | viability, T/C (second compound 0.0316 µM, first compound 0.03 µM) 22.1% | viability, T/C (second compound 0.0316 µM, first compound 0.0949 µM) 20.6% | viability, T/C (second compound 0.0316 µM, first compound 0.3 µM) 18% | viability, T/C (second compound 0.1 µM, first compound 0.000949 µM) 87.8% | viability, T/C (second compound 0.1 µM, first compound 0.003 µM) 70% | viability, T/C (second compound 0.1 µM, first compound 0.00949 µM) 35.7% | viability, T/C (second compound 0.1 µM, first compound 0.03 µM) 18.3% | viability, T/C (second compound 0.1 µM, first compound 0.0949 µM) 19.3% | viability, T/C (second compound 0.1 µM, first compound 0.3 µM) 18.9% | viability, T/C (second compound 0.316 µM, first compound 0.000949 µM) 87.3% | viability, T/C (second compound 0.316 µM, first compound 0.003 µM) 72.7% | viability, T/C (second compound 0.316 µM, first compound 0.00949 µM) 40.9% | viability, T/C (second compound 0.316 µM, first compound 0.03 µM) 21.7% | viability, T/C (second compound 0.316 µM, first compound 0.0949 µM) 19.3% | viability, T/C (second compound 0.316 µM, first compound 0.3 µM) 19.6% | viability, T/C (second compound 1 µM, first compound 0.000949 µM) 95.3% | viability, T/C (second compound 1 µM, first compound 0.003 µM) 69.8% | viability, T/C (second compound 1 µM, first compound 0.00949 µM) 45% | viability, T/C (second compound 1 µM, first compound 0.03 µM) 23.5% | viability, T/C (second compound 1 µM, first compound 0.0949 µM) 19.5% | viability, T/C (second compound 1 µM, first compound 0.3 µM) 23.7%
6.75 nM: IC50 [5]
6.62 nM: IC50 [1]
6.96 nM: IC50 [6]
5.81 nM: IC50 [4]
